Experimental data as given in ChEMBL document CHEMBL5058649, “Data for DCP probe BAY 1816032” (2022).
The source made the active and inactive calls. No cut-off for these calls is given here.

Key:
[1] = target: Activated CDC42 kinase 1 (Homo sapiens) (UniProt Q07912); experiment: TNK2 DiscoveRx kinase panel; conditions: Compound concentration 1.0 uM
[2] = target: Rhodopsin kinase GRK1 (Homo sapiens) (UniProt Q15835); experiment: GRK1 DiscoveRx kinase panel; conditions: Compound concentration 1.0 uM
[3] = target: Proto-oncogene tyrosine-protein kinase receptor Ret (Homo sapiens) (UniProt P07949); experiment: RET DiscoveRx kinase panel; conditions: Compound concentration 1.0 uM
[4] = target: Interleukin-1 receptor-associated kinase 3 (Homo sapiens) (UniProt Q9Y616); experiment: IRAK3 DiscoveRx kinase panel; conditions: Compound concentration 1.0 uM
[5] = target: Serine/threonine-protein kinase ULK1 (Homo sapiens) (UniProt O75385); experiment: ULK1 DiscoveRx kinase panel; conditions: Compound concentration 1.0 uM
[6] = target: Mitogen-activated protein kinase 6 (Homo sapiens) (UniProt Q16659); experiment: ERK3 DiscoveRx kinase panel; conditions: Compound concentration 1.0 uM
[7] = target: L-type calcium channel, dihydropyridine site (Cav1.2 alpha-1C) (Homo sapiens, UniProt Q13936); experiment: Inhibition of Calcium Channel L-Type, Dihydropyridine at 10 µM in the Eurofins-Panlabs radioligand binding assay (Eurofins_assay_214600); parameters: ligand concentration 0.1 nM, non-specific ligand with concentration 1 µM Nitrendipine, incubation time 90 min, incubation temperature 25 °C; conditions: Wistar, rat, rat cerebral cortex preparation, probe [3H] Nitrendipine; compound concentration 10 uM; target entry is the homologue from another species
[8] = target: Phosphatidylinositol 4,5-bisphosphate 3-kinase catalytic subunit delta isoform (Homo sapiens) (UniProt O00329); experiment: PIK3CD DiscoveRx kinase panel; conditions: Compound concentration 1.0 uM
[9] = target: Cyclin-dependent kinase 4/cyclin D1 (Homo sapiens) (UniProt P11802+P24385); experiment: CDK4-cyclinD1 DiscoveRx kinase panel; format: protein-complex assay; conditions: Compound concentration 1.0 uM
[10] = target: Citron Rho-interacting kinase (Homo sapiens) (UniProt O14578); experiment: CIT DiscoveRx kinase panel; conditions: Compound concentration 1.0 uM
[11] = target: T1, Mitotic checkpoint serine/threonine-protein kinase BUB1 (Homo sapiens, UniProt O43683); experiment: TR-FRET
[12] = target: Fibroblast growth factor receptor 1 (Homo sapiens) (UniProt P11362); experiment: FGFR1 DiscoveRx kinase panel; conditions: Compound concentration 1.0 uM
[13] = target: Inhibitor of nuclear factor kappa-B kinase subunit epsilon (Homo sapiens) (UniProt Q14164); experiment: IKK-epsilon DiscoveRx kinase panel; conditions: Compound concentration 1.0 uM
[14] = target: Mitogen-activated protein kinase kinase kinase kinase 3 (Homo sapiens) (UniProt Q8IVH8); experiment: MAP4K3 DiscoveRx kinase panel; conditions: Compound concentration 1.0 uM
[15] = target: Homeodomain-interacting protein kinase 2 (Homo sapiens) (UniProt Q9H2X6); experiment: HIPK2 DiscoveRx kinase panel; conditions: Compound concentration 1.0 uM
[16] = target: MAP kinase-interacting serine/threonine-protein kinase 1 (Homo sapiens) (UniProt Q9BUB5); experiment: MKNK1 DiscoveRx kinase panel; conditions: Compound concentration 1.0 uM
[17] = target: Tyrosine-protein kinase HCK (Homo sapiens) (UniProt P08631); experiment: HCK DiscoveRx kinase panel; conditions: Compound concentration 1.0 uM
HeLa = experiment: HeLa cell line Proliferation assay; format: functional, Homo sapiens; conditions: time 4 day
[18] = target: Serine/threonine-protein kinase ULK3 (Homo sapiens) (UniProt Q6PHR2); experiment: ULK3 DiscoveRx kinase panel; conditions: Compound concentration 1.0 uM
[19] = target: Serine/threonine-protein kinase PAK 4 (Homo sapiens) (UniProt O96013); experiment: PAK4 DiscoveRx kinase panel; conditions: Compound concentration 1.0 uM
[20] = target: Fibroblast growth factor receptor 3 (Homo sapiens) (UniProt P22607); experiment: FGFR3 DiscoveRx kinase panel; conditions: Compound concentration 1.0 uM
[21] = target: Interleukin-1 receptor-associated kinase 1 (Homo sapiens) (UniProt P51617); experiment: IRAK1 DiscoveRx kinase panel; conditions: Compound concentration 1.0 uM
[22] = target: Mitogen-activated protein kinase 10 (Homo sapiens) (UniProt P53779); experiment: JNK3 DiscoveRx kinase panel; conditions: Compound concentration 1.0 uM
[23] = target: Tyrosine-protein kinase ABL2 (Homo sapiens) (UniProt P42684); experiment: ABL2 DiscoveRx kinase panel; conditions: Compound concentration 1.0 uM
[24] = target: T1, Mitotic checkpoint serine/threonine-protein kinase BUB1; experiment: Abrogation of histone H2A-Thr120 phosphorylation
[25] = target: Ribosomal protein S6 kinase alpha-2 (Homo sapiens) (UniProt Q15349); experiment: RSK3(Kin.Dom.2-C-terminal) DiscoveRx kinase panel; conditions: Compound concentration 1.0 uM
[26] = target: Cyclin-dependent kinase 3 (Homo sapiens) (UniProt Q00526); experiment: CDK3 DiscoveRx kinase panel; conditions: Compound concentration 1.0 uM
[27] = target: BDNF/NT-3 growth factors receptor (Homo sapiens) (UniProt Q16620); experiment: TRKB DiscoveRx kinase panel; conditions: Compound concentration 1.0 uM
[28] = target: Mu-type opioid receptor (Homo sapiens) (UniProt P35372); conditions: Compound concentration 10.0 uM
[29] = target: Serine/threonine-protein kinase Sgk1 (Homo sapiens) (UniProt O00141); experiment: SGK DiscoveRx kinase panel; conditions: Compound concentration 1.0 uM
Rattus norvegicus [30] = species on record: Rattus norvegicus; experiment: GABAA, Ro-15-1788, Hippocampus Eurofins-Panlabs radioligand binding assay; parameters: ligand concentration 1 nM; conditions: Compound concentration 10.0 uM
[31] = target: Serine/threonine-protein kinase tousled-like 1 (Homo sapiens) (UniProt Q9UKI8); experiment: TLK1 DiscoveRx kinase panel; conditions: Compound concentration 1.0 uM
[32] = target: Atypical kinase COQ8B, mitochondrial (Homo sapiens) (UniProt Q96D53); experiment: ADCK4 DiscoveRx kinase panel; conditions: Compound concentration 1.0 uM
[33] = target: Serine/threonine-protein kinase PAK 3 (Homo sapiens) (UniProt O75914); experiment: PAK3 DiscoveRx kinase panel; conditions: Compound concentration 1.0 uM
[34] = target: Muscarinic acetylcholine receptor M3 (Homo sapiens) (UniProt P20309); conditions: Compound concentration 10.0 uM
[35] = target: Activin receptor type-1-like (Homo sapiens) (UniProt P37023); experiment: ACVRL1 DiscoveRx kinase panel; conditions: Compound concentration 1.0 uM
[36] = target: Death-associated protein kinase 3 (Homo sapiens) (UniProt O43293); experiment: DAPK3 DiscoveRx kinase panel; conditions: Compound concentration 1.0 uM
[37] = target: Serine/threonine-protein kinase BRSK1 (Homo sapiens) (UniProt Q8TDC3); experiment: BRSK1 DiscoveRx kinase panel; conditions: Compound concentration 1.0 uM
[38] = target: Phosphatidylinositol 5-phosphate 4-kinase type-2 gamma (Homo sapiens) (UniProt Q8TBX8); experiment: PIP5K2C DiscoveRx kinase panel; conditions: Compound concentration 1.0 uM
[39] = target: Non-receptor tyrosine-protein kinase TNK1 (Homo sapiens) (UniProt Q13470); experiment: TNK1 DiscoveRx kinase panel; conditions: Compound concentration 1.0 uM
Rattus norvegicus [40] = species on record: Rattus norvegicus; experiment: Inhibition of Glutamate, NMDA, Phencyclidine at 10 µM in the Eurofins-Panlabs radioligand binding assay (Eurofins_assay_233000); format: protein-complex assay; conditions: Compound concentration 10.0 uM
[41] = target: Mitogen-activated protein kinase kinase kinase 5 (Homo sapiens) (UniProt Q99683); experiment: ASK1 DiscoveRx kinase panel; conditions: Compound concentration 1.0 uM
SUM149PT = experiment: SUM-149 cell line Proliferation assay; format: functional, Homo sapiens; conditions: time 4 day
[42] = target: Calcium/calmodulin-dependent protein kinase type 1G (Homo sapiens) (UniProt Q96NX5); experiment: CAMK1G DiscoveRx kinase panel; conditions: Compound concentration 1.0 uM
[43] = target: Ribosomal protein S6 kinase alpha-4 (Homo sapiens) (UniProt O75676); experiment: RPS6KA4(Kin.Dom.1-N-terminal) DiscoveRx kinase panel; conditions: Compound concentration 1.0 uM
[44] = target: Ephrin type-A receptor 2 (Homo sapiens) (UniProt P29317); experiment: EPHA2 DiscoveRx kinase panel; conditions: Compound concentration 1.0 uM
[45] = target: Receptor-interacting serine/threonine-protein kinase 1 (Homo sapiens) (UniProt Q13546); experiment: RIPK1 DiscoveRx kinase panel; conditions: Compound concentration 1.0 uM
[46] = target: Cyclin-dependent kinase-like 3 (Homo sapiens) (UniProt Q8IVW4); experiment: CDKL3 DiscoveRx kinase panel; conditions: Compound concentration 1.0 uM
[47] = target: Histamine H3 receptor (Homo sapiens) (UniProt Q9Y5N1); conditions: Compound concentration 10.0 uM

T1 sequence (O43683 whole entry): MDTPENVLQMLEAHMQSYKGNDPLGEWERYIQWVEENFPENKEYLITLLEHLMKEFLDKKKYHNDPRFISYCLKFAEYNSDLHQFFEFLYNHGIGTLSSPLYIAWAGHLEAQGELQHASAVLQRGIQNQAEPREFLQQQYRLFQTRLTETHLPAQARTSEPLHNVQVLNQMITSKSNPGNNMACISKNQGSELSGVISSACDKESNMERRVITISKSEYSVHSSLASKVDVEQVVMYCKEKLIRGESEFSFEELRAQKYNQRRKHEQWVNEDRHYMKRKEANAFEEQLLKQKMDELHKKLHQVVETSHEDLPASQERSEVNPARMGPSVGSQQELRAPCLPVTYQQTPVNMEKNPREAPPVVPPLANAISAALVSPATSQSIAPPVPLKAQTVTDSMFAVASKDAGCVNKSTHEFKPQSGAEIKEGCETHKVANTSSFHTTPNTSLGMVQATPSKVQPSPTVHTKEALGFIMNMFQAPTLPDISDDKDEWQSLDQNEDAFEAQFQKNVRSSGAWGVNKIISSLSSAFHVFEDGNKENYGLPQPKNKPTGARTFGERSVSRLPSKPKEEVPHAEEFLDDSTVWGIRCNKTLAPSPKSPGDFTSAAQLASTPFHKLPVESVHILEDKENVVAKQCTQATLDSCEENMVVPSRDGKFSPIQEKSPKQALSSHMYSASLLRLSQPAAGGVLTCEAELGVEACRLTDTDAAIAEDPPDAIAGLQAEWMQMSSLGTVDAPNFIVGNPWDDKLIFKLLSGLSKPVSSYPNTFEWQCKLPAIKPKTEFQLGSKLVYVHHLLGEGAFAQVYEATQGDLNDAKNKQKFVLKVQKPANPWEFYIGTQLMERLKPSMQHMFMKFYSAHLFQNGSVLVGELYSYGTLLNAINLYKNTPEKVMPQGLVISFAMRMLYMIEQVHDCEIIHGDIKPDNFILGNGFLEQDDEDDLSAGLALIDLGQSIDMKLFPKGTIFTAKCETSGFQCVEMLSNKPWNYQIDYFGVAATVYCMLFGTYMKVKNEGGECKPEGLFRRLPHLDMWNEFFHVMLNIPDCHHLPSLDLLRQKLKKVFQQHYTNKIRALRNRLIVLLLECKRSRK
Chain of Serine/threonine-protein kinase PAK 4 (Homo sapiens) (O96013 whole entry, looked up): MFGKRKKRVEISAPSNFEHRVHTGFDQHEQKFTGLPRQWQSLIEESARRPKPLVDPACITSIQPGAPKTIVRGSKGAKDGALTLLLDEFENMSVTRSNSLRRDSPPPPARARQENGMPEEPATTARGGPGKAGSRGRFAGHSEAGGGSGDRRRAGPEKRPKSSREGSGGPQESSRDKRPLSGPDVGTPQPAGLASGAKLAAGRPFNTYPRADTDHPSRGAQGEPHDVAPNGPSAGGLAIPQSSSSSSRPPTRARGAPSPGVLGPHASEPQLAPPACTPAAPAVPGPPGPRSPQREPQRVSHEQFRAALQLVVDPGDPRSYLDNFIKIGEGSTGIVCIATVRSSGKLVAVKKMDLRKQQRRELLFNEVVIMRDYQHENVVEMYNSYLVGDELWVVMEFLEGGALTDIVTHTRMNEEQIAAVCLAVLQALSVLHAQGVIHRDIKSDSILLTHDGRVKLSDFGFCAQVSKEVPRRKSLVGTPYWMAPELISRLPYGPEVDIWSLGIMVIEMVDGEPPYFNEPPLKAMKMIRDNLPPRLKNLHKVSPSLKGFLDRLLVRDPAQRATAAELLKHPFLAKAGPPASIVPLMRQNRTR
Chain of Proto-oncogene tyrosine-protein kinase receptor Ret (Homo sapiens) (P07949 whole entry): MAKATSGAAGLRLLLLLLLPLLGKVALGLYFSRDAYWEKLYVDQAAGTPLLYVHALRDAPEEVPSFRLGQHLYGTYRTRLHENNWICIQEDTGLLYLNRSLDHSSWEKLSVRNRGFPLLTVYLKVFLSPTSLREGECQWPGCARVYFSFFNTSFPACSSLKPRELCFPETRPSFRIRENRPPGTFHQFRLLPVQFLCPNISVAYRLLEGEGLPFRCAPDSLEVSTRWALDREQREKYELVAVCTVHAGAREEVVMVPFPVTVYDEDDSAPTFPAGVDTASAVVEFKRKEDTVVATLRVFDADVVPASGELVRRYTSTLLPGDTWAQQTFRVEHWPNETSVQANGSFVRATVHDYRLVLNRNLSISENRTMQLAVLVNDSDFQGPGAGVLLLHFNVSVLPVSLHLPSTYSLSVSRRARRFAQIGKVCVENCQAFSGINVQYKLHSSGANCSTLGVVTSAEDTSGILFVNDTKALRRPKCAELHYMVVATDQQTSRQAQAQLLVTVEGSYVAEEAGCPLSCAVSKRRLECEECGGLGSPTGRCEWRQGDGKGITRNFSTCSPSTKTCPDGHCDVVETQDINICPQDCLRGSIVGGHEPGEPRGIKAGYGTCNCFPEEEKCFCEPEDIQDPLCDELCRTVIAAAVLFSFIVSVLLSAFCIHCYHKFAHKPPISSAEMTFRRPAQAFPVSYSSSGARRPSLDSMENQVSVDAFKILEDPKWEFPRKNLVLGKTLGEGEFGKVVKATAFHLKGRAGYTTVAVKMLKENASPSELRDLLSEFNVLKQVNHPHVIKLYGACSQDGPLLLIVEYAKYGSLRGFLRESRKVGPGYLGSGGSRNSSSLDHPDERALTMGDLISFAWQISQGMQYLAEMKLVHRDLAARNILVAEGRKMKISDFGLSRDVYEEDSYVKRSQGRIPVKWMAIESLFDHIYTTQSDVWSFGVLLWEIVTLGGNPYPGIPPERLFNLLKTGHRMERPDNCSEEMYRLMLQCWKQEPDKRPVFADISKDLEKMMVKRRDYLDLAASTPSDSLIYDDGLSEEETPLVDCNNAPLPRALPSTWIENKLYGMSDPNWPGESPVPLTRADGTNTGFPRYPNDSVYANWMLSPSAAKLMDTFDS
Chain of Homeodomain-interacting protein kinase 2 (Homo sapiens) (Q9H2X6 whole entry, looked up): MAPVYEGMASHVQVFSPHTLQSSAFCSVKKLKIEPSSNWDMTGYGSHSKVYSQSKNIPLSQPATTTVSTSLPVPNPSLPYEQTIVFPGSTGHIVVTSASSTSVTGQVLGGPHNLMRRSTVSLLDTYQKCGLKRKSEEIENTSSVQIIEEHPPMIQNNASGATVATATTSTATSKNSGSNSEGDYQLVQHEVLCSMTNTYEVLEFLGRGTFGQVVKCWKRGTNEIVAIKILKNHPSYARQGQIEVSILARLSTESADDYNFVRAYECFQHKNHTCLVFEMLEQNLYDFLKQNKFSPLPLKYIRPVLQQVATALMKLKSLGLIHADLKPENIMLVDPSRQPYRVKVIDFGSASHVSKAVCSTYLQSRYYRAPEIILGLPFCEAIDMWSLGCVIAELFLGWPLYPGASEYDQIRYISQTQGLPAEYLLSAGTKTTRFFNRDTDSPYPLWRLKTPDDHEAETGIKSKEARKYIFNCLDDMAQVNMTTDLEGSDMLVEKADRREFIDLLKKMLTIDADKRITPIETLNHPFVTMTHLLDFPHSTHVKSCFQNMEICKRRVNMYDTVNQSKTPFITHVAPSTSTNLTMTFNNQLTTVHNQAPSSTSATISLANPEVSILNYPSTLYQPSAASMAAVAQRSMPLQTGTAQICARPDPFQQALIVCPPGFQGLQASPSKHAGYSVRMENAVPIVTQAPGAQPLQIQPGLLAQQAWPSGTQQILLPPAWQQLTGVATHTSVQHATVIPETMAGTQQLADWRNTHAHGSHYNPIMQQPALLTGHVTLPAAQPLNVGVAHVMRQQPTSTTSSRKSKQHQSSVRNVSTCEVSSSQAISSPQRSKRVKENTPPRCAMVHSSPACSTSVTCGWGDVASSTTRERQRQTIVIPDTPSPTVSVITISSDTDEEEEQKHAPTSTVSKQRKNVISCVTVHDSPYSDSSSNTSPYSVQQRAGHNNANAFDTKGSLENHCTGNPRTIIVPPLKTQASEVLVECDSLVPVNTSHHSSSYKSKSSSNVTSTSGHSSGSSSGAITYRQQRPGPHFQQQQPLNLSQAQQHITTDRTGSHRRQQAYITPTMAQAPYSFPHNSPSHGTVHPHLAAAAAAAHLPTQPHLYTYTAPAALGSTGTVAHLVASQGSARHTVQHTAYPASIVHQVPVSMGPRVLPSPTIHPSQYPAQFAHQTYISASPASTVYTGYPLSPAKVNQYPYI
Chain of Serine/threonine-protein kinase BRSK1 (Homo sapiens) (Q8TDC3 whole entry): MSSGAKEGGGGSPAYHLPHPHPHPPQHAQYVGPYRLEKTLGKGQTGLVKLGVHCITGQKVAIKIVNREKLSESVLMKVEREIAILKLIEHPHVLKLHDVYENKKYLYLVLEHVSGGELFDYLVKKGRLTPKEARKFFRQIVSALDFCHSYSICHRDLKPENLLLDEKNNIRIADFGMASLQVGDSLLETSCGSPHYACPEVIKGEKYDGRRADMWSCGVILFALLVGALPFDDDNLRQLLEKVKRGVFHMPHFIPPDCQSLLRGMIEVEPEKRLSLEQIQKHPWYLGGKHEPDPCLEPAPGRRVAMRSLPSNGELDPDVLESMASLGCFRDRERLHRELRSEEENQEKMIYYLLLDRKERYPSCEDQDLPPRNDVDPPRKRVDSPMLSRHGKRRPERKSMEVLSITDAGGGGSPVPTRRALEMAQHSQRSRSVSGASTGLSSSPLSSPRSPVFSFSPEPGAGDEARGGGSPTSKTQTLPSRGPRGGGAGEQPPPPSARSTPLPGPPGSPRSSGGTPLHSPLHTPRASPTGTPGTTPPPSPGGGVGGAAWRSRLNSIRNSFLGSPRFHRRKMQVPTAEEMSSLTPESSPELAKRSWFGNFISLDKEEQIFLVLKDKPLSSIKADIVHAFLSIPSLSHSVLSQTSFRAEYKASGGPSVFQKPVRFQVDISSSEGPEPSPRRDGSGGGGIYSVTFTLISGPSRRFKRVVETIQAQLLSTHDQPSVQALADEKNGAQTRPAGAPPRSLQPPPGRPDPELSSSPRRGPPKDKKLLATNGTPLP
Chain of Cyclin-dependent kinase 3 (Homo sapiens) (Q00526 whole entry, looked up): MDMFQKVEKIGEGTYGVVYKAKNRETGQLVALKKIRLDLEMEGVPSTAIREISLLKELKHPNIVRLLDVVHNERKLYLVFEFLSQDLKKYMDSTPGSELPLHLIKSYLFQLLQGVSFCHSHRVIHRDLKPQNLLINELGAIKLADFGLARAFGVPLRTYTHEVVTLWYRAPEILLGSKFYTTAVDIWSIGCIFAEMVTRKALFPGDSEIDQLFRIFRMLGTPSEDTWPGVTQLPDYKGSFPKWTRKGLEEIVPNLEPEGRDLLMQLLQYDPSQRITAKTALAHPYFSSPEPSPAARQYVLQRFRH

`COc1cnccc1Nc1nc(-c2nn(Cc3c(F)cc(OCCO)cc3F)c3ccccc23)ncc1OC` gave a residual activity [1] of 100%, a residual activity [2] of 100% and a residual activity [3] of 97%. For the same molecule, the residual activity [4] was 92%, the residual activity [5] was 90% and the residual activity [6] was 93%. For the same molecule, the inhibition at 90 min, 10 µM [7] was 8% (not active), the residual activity [8] was 100% and the residual activity [9] was 100%. For the same molecule, the residual activity [10] was 52%, the EC50 [11] was 6.1 nM (active) and the residual activity [12] was 87%. It also gave a residual activity [13] of 92%, a residual activity [14] of 100% and a residual activity [15] of 100%. For the same molecule, the residual activity [16] was 100%, the residual activity [17] was 100% and the “Cell Proliferation IC50” value (HeLa) was 1600 nM. It also gave a residual activity [18] of 100%, a residual activity [19] of 82% and a residual activity [20] of 100%. The residual activity [21] was 100%, the residual activity [22] was 56% and the residual activity [23] was 100%. For the same molecule, the IC50 [24] was 29 nM (active), the residual activity [25] was 100% and the residual activity [26] was 99%. It also gave a residual activity [27] of 100%, an inhibition [28] of -4.25% and a residual activity [29] of 93%. The inhibition (Rattus norvegicus [30]) was 22%, the residual activity [31] was 85% and the residual activity [32] was 99%. It also gave a residual activity [33] of 81%, an inhibition [34] of -5% and a residual activity [35] of 69%. For the same molecule, the residual activity [36] was 84%, the residual activity [37] was 93% and the residual activity [38] was 100%. It also gave a residual activity [39] of 62%, an inhibition (Rattus norvegicus [40]) of 2% and a residual activity [41] of 95%. The “Cell Proliferation IC50” value (SUM149PT) was 640 nM, the residual activity [42] was 99% and the residual activity [43] was 91%. For the same molecule, the residual activity [44] was 100%, the residual activity [45] was 97% and the residual activity [46] was 89%. For the same molecule, the inhibition [47] was 21.3%.
